# Data taken from patent publication EP0595557A1, “New substituted azetidinones as anti-inflammatory and antidegenerative agents” (MERCK & CO. INC., priority 1992, dated 1994).
# Biological target: T1, Human Polymorphonuclear Leukocyte Elastase (Homo sapiens, UniProt P08246)
# T1 construct: Crude extract of human polymorphonuclear leukocytes (PMN) containing elastase activity; from tissue; host or cells: human polymorphonuclear leukocytes (crude extract)
# T1 sequence (P08246 30-267): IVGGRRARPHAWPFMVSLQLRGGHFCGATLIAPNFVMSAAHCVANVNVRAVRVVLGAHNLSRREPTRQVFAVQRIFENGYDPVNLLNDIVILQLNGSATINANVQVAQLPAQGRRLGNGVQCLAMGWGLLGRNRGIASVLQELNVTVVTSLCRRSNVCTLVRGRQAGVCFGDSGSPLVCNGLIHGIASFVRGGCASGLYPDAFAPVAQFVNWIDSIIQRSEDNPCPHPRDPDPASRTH
# Experiment: Enzyme assay for inhibition of human polymorphonuclear leukocyte elastase via hydrolysis of Boc-AAPAN or Boc-AAPVN
# Type: biochemical
# Conditions: pH 7.5, second order rate constant for inactivation of the enzyme, expressed to the nearest thousand, read-out: Kobs/[I]
# Procedure: Enzyme Assays for the Inhibition of Human Polymorphonuclear Leukocyte Elastase Via Hydrolysis of N-t-Boc-alanyl-alanyl-prolylalanine-p-nitroanilide (Boc-AAPAN) or N-t-Boc-alanyl-prolylvaline-p-nitro-anilide (Boc-AAPVN) Reagent:
# 0.05M TES (N-tris[hydroxymethyl]methyl-2-mino-ethanesulfonic acid) Buffer, pH 7.5.
# 0.2 mM Boc-AAPAN or Boc-AAPVN.
# To prepare substrate, the solid was first dissolved in 10.0 ml DMSO. Buffer at pH 7.5 was then added to a final volume of 100 ml.
# Crude extract of human polymorphonuclear leukocytes (PMN) containing elastase activity.
# Inhibitors (azetidinones) to be tested dissolved in DMSO just before use.
# To 1.0 ml of 0.2 mM Boc-AAPAN in a cuvette, 0.01-0.1 ml of DMSO with or without inhibitor was added. After mixing, a measurement was taken at 410 mµ to detect any spontaneous hydrolysis due to presence of test compound. 0.05 Milliliters of PMN extract was then added and the ΔOD/min at 410 mµ was measured and recorded. Beckman model 35 spectrophotometer was used.
# Results were expressed to the nearest thousand ^kobs/I which is the second order rate constant in per mole per second for inactivation of the enzyme.
# The elastase activity in the crude PMN extract may vary from one preparation to another. A control of each new batch is run, and the volume added in the assay procedure is adjusted according to activity.
row,kinact/KI,Structure (SMILES)
1,377000 M⁻¹ s⁻¹,CCC[C@@H](NC(=O)N1C(=O)C(CC)(CC)[C@@H]1Oc1cc(C)c(C(=O)N(C)CCN(CC)CC)c(C)c1)c1ccc(C)cc1 [Compound 308]
2,3.48e+06 M⁻¹ s⁻¹,CCC[C@@H](NC(=O)N1C(=O)C(CC)(CC)[C@@H]1Oc1ccc(C(=O)N(C)CCN2CCC(OCc3ccccc3)CC2)cc1)c1ccc(C)cc1 [Compound 126]
3,85000 M⁻¹ s⁻¹,CCC[C@@H](NC(=O)N1C(=O)C(CC)(CC)[C@@H]1Oc1ccc(C(=O)N(C)C2CCNCC2)cc1)c1ccc(C)cc1 [Compound 211]
4,942000 M⁻¹ s⁻¹,CCC[C@@H](NC(=O)N1C(=O)C(CC)(CC)[C@@H]1Oc1ccc(CC(=O)N(C)C)cc1)c1ccc(C)cc1 [Compound 67]
5,1.26e+06 M⁻¹ s⁻¹,CCC[C@@H](NC(=O)N1C(=O)C(CC)(CC)[C@@H]1Oc1ccc(C(=O)N(C)CCN(C)Cc2cccc(F)c2)cc1)c1ccc(C)cc1 [Compound 203]
6,1.54e+06 M⁻¹ s⁻¹,CCC[C@@H](NC(=O)N1C(=O)C(CC)(CC)[C@@H]1Oc1ccc(C(=O)N(C)C2CCCN(CC)C2)cc1)c1ccc(C)cc1 (some centres unmarked) [Compound 172]
7,931000 M⁻¹ s⁻¹,CCC[C@@H](NC(=O)N1C(=O)C(CC)(CC)[C@@H]1Oc1ccc(C(=O)N2CCC[C@H]2C(N)=O)cc1)c1ccc(C)cc1 [Compound 227]
8,1.73e+06 M⁻¹ s⁻¹,"CCC[C@@H](NC(=O)N1C(=O)C(CC)(CC)[C@@H]1Oc1ccc(C(=O)NCCN2CCC(O)CC2)cc1)c1ccc(C)cc1 [Compound 120, [S-(R+,S*)]-3,3-diethyl-2-[4-[[[2-(4-hydroxy-1-piperidinyl)ethyl]amino]carbonyl]phenoxy]-N-[1-(4-methyl-phenyl)butyl]-4-oxo-1-azetidine-carboxamide]"
9,1.5e+06 M⁻¹ s⁻¹,CCC[C@@H](NC(=O)N1C(=O)C(CC)(CC)[C@@H]1Oc1ccc(C(=O)N(C)CCN(C(C)C)C(C)C)cc1)c1ccc(Cl)cc1 [Compound 301]
10,1.31e+06 M⁻¹ s⁻¹,CCC[C@@H](NC(=O)N1C(=O)C(CC)(CC)[C@@H]1Oc1ccc(C(=O)N(C)C2CCN(CCC)CC2)cc1)c1ccc(C)cc1 [Compound 216]
11,1.51e+06 M⁻¹ s⁻¹,CCC[C@@H](NC(=O)N1C(=O)C(CC)(CC)[C@@H]1Oc1ccc(C(=O)NCCN2CCC[C@H]2CO)cc1)c1ccc(C)cc1 [Compound 141]
12,1.57e+06 M⁻¹ s⁻¹,"CCC[C@@H](NC(=O)N1C(=O)C(CC)(CC)[C@@H]1Oc1ccc(C(=O)OCC(=O)N2CCC[C@H]2C(=O)O)cc1)c1ccc(C)cc1 (relative stereo) [Compound 9, (S(R*,S*))-1-(((4-((3,3-diethyl-1-(((1-(4-methylphenyl)butyl)amino)carbonyl)-4-oxo-2-azetidinyl)oxy)benzoyl)oxy)acetyl) L-proline]"
13,1.72e+06 M⁻¹ s⁻¹,CCC[C@@H](NC(=O)N1C(=O)C(CC)(CC)[C@@H]1Oc1ccc(CC(=O)OCCN2CCOCC2)cc1)c1ccc(C)cc1 [Compound 35]
14,1.98e+06 M⁻¹ s⁻¹,CCC[C@@H](NC(=O)N1C(=O)C(CC)(CC)[C@@H]1Oc1ccc(C(=O)N2CCCN(Cc3ccccc3)CC2)cc1)c1ccc(C)cc1 [Compound 155]
15,1.79e+06 M⁻¹ s⁻¹,CCC[C@@H](NC(=O)N1C(=O)C(CC)(CC)[C@@H]1Oc1ccc(C(=O)N(C)CCN(C)CC2CC2)cc1)c1ccc(C)cc1 [Compound 185]
16,2.46e+06 M⁻¹ s⁻¹,CCCCNC(=O)c1ccc(OC2N(C(=O)NC(CCC)c3ccc(C)cc3)C(=O)C2(CC)CC)cc1 (centres unmarked) [Compound 201]
17,1.77e+06 M⁻¹ s⁻¹,CCC[C@@H](NC(=O)N1C(=O)C(CC)(CC)[C@@H]1Oc1ccc(C(=O)N2CCN(CCC)CC2)cc1)c1ccc(C)cc1 [Compound 253]
18,1.55e+06 M⁻¹ s⁻¹,CCC[C@@H](NC(=O)N1C(=O)C(CC)(CC)[C@@H]1Oc1ccc(C(=O)N(C)CCCC(=O)NS(=O)(=O)c2ccccc2)cc1)c1ccc(C)cc1 [Compound 165]
19,2.05e+06 M⁻¹ s⁻¹,CCC[C@@H](NC(=O)N1C(=O)C(CC)(CC)[C@@H]1Oc1ccc(C(=O)NCCn2cnnn2)cc1)c1ccc(C)cc1 [Compound 101]
20,2.8e+06 M⁻¹ s⁻¹,CCC[C@@H](NC(=O)N1C(=O)C(CC)(CC)[C@@H]1Oc1ccc(C(=O)N(C)CCN(C)CCc2ccccc2)cc1)c1ccc(C)cc1 [Compound 153]
21,2.2e+06 M⁻¹ s⁻¹,CCC[C@@H](NC(=O)N1C(=O)C(CC)(CC)[C@@H]1Oc1ccc(C(=O)N(C)CCN(C)Cc2ccc(C#N)cc2)cc1)c1ccc(C)cc1 [Compound 177]
22,749000 M⁻¹ s⁻¹,"CCC[C@@H](NC(=O)N1C(=O)C(CC)(CC)[C@@H]1Oc1cc(C)c(C(=O)OCCN(CC)CC)c(C)c1)c1ccc(C)cc1 [Compound 305, 2-(diethylamino)ethyl [S-(R*,S*)]-4-[[3,3-diethyl-1-[[[1-(4-methylphenyl)butyl]amino]carbonyl]-4-oxo-2-azetidinyl]oxy]-2,6-dimethyl-benzoate]"

row,kinact/KI,Structure (SMILES)
1,255000 M⁻¹ s⁻¹,CCC[C@@H](NC(=O)N1C(=O)C(CC)(CC)[C@@H]1Oc1ccc(CC(=O)N2CCOCC2)cc1)c1ccc(C)c(C(=O)N(CCC)CCC)c1 [Compound 294]
2,2.9e+06 M⁻¹ s⁻¹,CCC[C@@H](NC(=O)N1C(=O)C(CC)(CC)[C@@H]1Oc1ccc(C(=O)N(C)CCN2CCCCCC2)cc1)c1ccc(C)cc1 [Compound 122]
3,2.1e+06 M⁻¹ s⁻¹,CCC[C@@H](NC(=O)N1C(=O)C(CC)(CC)[C@@H]1Oc1ccc(CC(=O)OCC(C)(C)N(C)C)cc1)c1ccc(C)cc1 [Compound 37]
4,676000 M⁻¹ s⁻¹,CCC[C@@H](NC(=O)N1C(=O)C(CC)(CC)[C@@H]1Oc1ccc(CC(=O)NC(C)C(=O)O)cc1)c1ccc(C)cc1 (some centres unmarked) [Compound 48]
5,1.45e+06 M⁻¹ s⁻¹,CCC[C@@H](NC(=O)N1C(=O)C(CC)(CC)[C@@H]1Oc1ccc(C(=O)N(C)CCNC)cc1)c1ccc(C)cc1 [Compound 92]
6,2.45e+06 M⁻¹ s⁻¹,CCC[C@@H](NC(=O)N1C(=O)C(CC)(CC)[C@@H]1Oc1ccc(C(=O)N(C)CCN(C)Cc2cccc(C#N)c2)cc1)c1ccc(C)cc1 [Compound 179]
7,1.83e+06 M⁻¹ s⁻¹,CCC[C@@H](NC(=O)N1C(=O)C(CC)(CC)[C@@H]1Oc1ccc(C(=O)N(C)CCN(C)CC(=O)OC(C)(C)C)cc1)c1ccc(C)cc1 [Compound 171]
8,1.51e+06 M⁻¹ s⁻¹,CCC[C@@H](NC(=O)N1C(=O)C(CC)(CC)[C@@H]1Oc1ccc(CC(=O)N(C)c2ccc(C(=O)O)cc2)cc1)c1ccc(C)cc1 [Compound 71]
9,4.8e+06 M⁻¹ s⁻¹,"CCC[C@@H](NC(=O)N1C(=O)C(CC)(CC)[C@@H]1Oc1ccc(C(=O)N2CCN(CCO)CC2)cc1)c1ccc2c(c1)OCO2 [Compound 265c, [S-(R*,5*)]-2-[4-[[(4-Hydroxyethyl)piperazin-1-yl]carbonyl]phenoxy]-((3,3-diethyl-N-[1-(3,4-methylenedioxyphenyl)butyl]-4-oxo-1-azetidinecarboxamide]"
10,1.92e+06 M⁻¹ s⁻¹,"CCC[C@@H](NC(=O)N1C(=O)C(CC)(CC)[C@@H]1Oc1ccc(C(=O)N(C)CCN(C)C)cc1)c1ccc(C)cc1 [Compound 75, [S-(R*,S*)]-2-[4-[[[2-(dimethylamino)ethyl]methylamino]carbonyl]phenoxy]-3,3-diethyl-N-[1-(4-methylphenyl]butyl]-4-oxo-1-azetidinecarboxamide]"
11,949000 M⁻¹ s⁻¹,CCC[C@@H](NC(=O)N1C(=O)C(CC)(CC)[C@@H]1Oc1ccc(C(=O)NC2CCCN(CC)C2)cc1)c1ccc(C)cc1 (some centres unmarked) [Compound 162]
12,2.5e+06 M⁻¹ s⁻¹,CCC[C@@H](NC(=O)N1C(=O)C(CC)(CC)[C@@H]1Oc1ccc(C(=O)N(CCN(C)C)c2ccccc2)cc1)c1ccc(C)cc1 [Compound 82]
13,393000 M⁻¹ s⁻¹,CCC[C@@H](NC(=O)N1C(=O)C(CC)(CC)[C@@H]1Oc1ccc(CC(=O)N2CCOCC2)cc1)c1ccc(C(=O)N(C)CCN(C)C)cc1 [Compound 283]
14,1.96e+06 M⁻¹ s⁻¹,CCC[C@@H](NC(=O)N1C(=O)C(CC)(CC)[C@@H]1Oc1ccc(C(=O)N(C)CCN2CCCC(O)C2)cc1)c1ccc(C)cc1 (some centres unmarked) [Compound 124]
15,2.29e+06 M⁻¹ s⁻¹,CCC[C@@H](NC(=O)N1C(=O)C(CC)(CC)[C@@H]1Oc1ccc(C(=O)N(C)CCN(C)C2CCC3CC2C3(C)C)cc1)c1ccc(C)cc1 (some centres unmarked) [Compound 222]
16,142000 M⁻¹ s⁻¹,CCC[C@@H](NC(=O)N1C(=O)C(CC)(CC)[C@@H]1Oc1ccc(CC(=O)N(C)CCN(C)C)cc1)c1cccc(C(=O)N2CCOCC2)c1 [Compound 268]
17,62000 M⁻¹ s⁻¹,CCC[C@@H](NC(=O)N1C(=O)C(CC)(CC)[C@@H]1Oc1ccc(CC(=O)N2CCOCC2)cc1)c1ccc(C(=O)O)cc1 [Compound 281]
18,2.53e+06 M⁻¹ s⁻¹,CCC[C@@H](NC(=O)N1C(=O)C(CC)(CC)[C@@H]1Oc1ccc(C(=O)N(C)CCN(C)S(C)(=O)=O)cc1)c1ccc(C)cc1 [Compound 107]
19,2.55e+06 M⁻¹ s⁻¹,CCC[C@@H](NC(=O)N1C(=O)C(CC)(CC)[C@@H]1Oc1ccc(C(=O)N2CCN(CCOC(=O)NC)CC2)cc1)c1ccc(C)cc1 [Compound 255]
20,977000 M⁻¹ s⁻¹,CCC[C@@H](NC(=O)N1C(=O)C(CC)(CC)[C@@H]1Oc1ccc(C(=O)NC(C)[PH](=O)O)cc1)c1ccc(C)cc1 (some centres unmarked) [Compound 183]
21,1.95e+06 M⁻¹ s⁻¹,CCC[C@@H](NC(=O)N1C(=O)C(CC)(CC)[C@@H]1Oc1ccc(C(=O)N2CCCNCC2)cc1)c1ccc(C)cc1 [Compound 152]

row,Structure (SMILES),kinact/KI
1,CCC[C@@H](NC(=O)N1C(=O)C(CC)(CC)[C@@H]1Oc1ccc(CC(=O)N(C)CCN(C)C)cc1)c1ccc(OC)cc1 [Compound 289],754000 M⁻¹ s⁻¹
